Results from patent US20060111420A1, “Sorbicillactone-a derivatives for the treatment of tumour and viral diseases” (Johannes Gutenberg-Universitat Mainz, priority 2002, published 2006).

Experiments:
[1] = system: L5178y mouse lymphoma cellular system (ATCC CRL 1722); assay: Antitumoural activity, L5178y cell proliferation (XTT); format: cell-based; conditions: for Optical density (595 nm): 72 h, XTT, control 0.38; for cellular proliferation after 72 h: at >0.1 μg/ml
[2] = system: mice-ear oedema; assay: TPA-induced mice-ear oedema; format: in vivo, mice (Swiss); conditions: 20 μg topically 10 min after TPA (10 μg); n=5; P<=0.01
[3] = target: phospholipase A2 [from bee's poison] (Apis mellifera, UniProt P00630); assay: biochemical; conditions: read-out: inhibition of phospholipase A2
Sequence of phospholipase A2 [from bee's poison] (P00630 34-167 limits assumed): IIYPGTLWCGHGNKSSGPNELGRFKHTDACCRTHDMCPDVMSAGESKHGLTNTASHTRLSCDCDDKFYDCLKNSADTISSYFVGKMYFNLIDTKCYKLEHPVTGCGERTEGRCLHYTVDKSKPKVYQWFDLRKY

[4] = system: NMRI-mice
[5] = system: human foreskin-fibroblasts; assay: Proliferation of human foreskin-fibroblasts; format: cell-based; conditions: 30 μg/ml; cell count microscopically

SMILES	Optical density (595 nm) ([1]; 0.1 μg/ml)	Optical density (595 nm) ([1]; 0.3 μg/ml)	Optical density (595 nm) ([1]; 1.0 μg/ml)	Optical density (595 nm) ([1]; 3.0 μg/ml)	cellular proliferation after 72 h [1]	inhibition of the formation of the oedema [2] [%]	inhibition at 2 µg/mL [3] [%]	mortality ([4]; 20 mg/kg per day i.p. for five days)	sub-acute toxicity ([4]; male, NMRI, mouse, in vivo, ip, 5 days) [mg/kg]	effect on the proliferation [5]
C/C=C/C=C/C(O)=C1/C(=O)C(C)=C(O)C2(C)OC(=O)C(C)(NC(=O)C3NN=CC3C(=O)OC)C12 (stereo not drawn) [SOA-D1]	0.29	0.22	0.05	0.03	drastically reduced					
C/C=C/C=C/C(O)=C1/C(=O)C(C)=C(O)[C@@]2(C)OC(=O)[C@@](C)(NC(=O)/C=C/C(=O)O)[C@@H]12 [Sorbicillacton A, sorbicillacton A]	0.24	0.19	0.07	0.06	drastically reduced	39.2±5.3	~80	None of the test animals dies	> 20	no effect on the proliferation
